# According to US20240229066A1 (priority 2020, published 2024):
# Peptide text beside a SMILES is read from it. * marks the point of attachment. Cbz = O=C(OCc1ccccc1)*; CHN2 = [N-]=[N+]=C*
# Assays:
# Type in all cases: cell-based, recombinant vesicular stomatitis virus
# [1] = test system: rVSVs carrying SARS-CoV 2 S
# [2] = test system: rVSVs bearing SARS-CoV-2 S
# rVSVs bearing EBOV GP = test system: rVSVs bearing EBOV GP
SMILES,S-mediated entry (infection scored by eGFP expression) [1],sensitivity of S-mediated entry relative to EBOV GP-dependent entry [1],entry by rVSVs bearing SARS-CoV-2 S (infection scored by eGFP expression) [2],sensitivity of S-mediated entry compared with entry by EBOV GP [2],entry by rVSVs bearing EBOV GP (infection scored by eGFP expression) (rVSVs bearing EBOV GP)
"[N-]=[N+]=CC(=O)C(Cc1ccc(O)cc1)NC(=O)C(Cc1ccccc1)NC(=O)OCc1ccccc1 (stereo not drawn) [FYdmk, Z-Phe-tyr-dmk] (Cbz-Phe-Tyr-CHN2; configuration not given here)",inhibited S-mediated entry,reduced sensitivity,,,
Cl.N [NH4Cl],,,reduced entry,comparatively less sensitive,reduced entry
